One experiment has as its system C. albicans. As to the kind of experiment: HRP added to growing C. albicans cells (FIG. 1). Format: cell-based, Candida albicans. The settings on record: data not shown. On the procedure:
FIG. 1 is a plot showing the effect of the salivary histidine-rich polypeptide on the growth of C. albicans.
When HRP was not placed in the growth medium initially but was added to growing cells, the following observations were noted (FIG. 1).

The next experiment concerns Candida Albicans 18804. In words: Proliferation of Candida albicans 18804 on denture acrylic strips, poly-L-histidine. Format: cell-based. On the procedure:
Denture acrylic was uniformly cut into strips of dimension 1/8 inches×1/8 inches×31/2 inches. Each strip was attached to the inside of the cap of the screw cap tube (13 X 100 mm) such that the bottom of each strip lay 3/8 inches from the bottom of each tube. Tubes containing denture strips were sterilized in the ethylene oxide sterilizer. In this experiment, poly-L-histidine was dissolved in 0.025 M MES buffer, pH 5.2 with heating. As in the previous experiment, denture strips were first pretreated with poly-L-histidine (4 mg per ml) overnight prior to incubation with Candida albicans for 21/4 hours. Strips were then transferred to YSM without poly-histidine (controls) or to YSM containing poly-histidine at 2 mg per ml. Although there was precipitation of the poly-L-histidine in the YSM, strips were incubated for 24 hours until controls had reached an optical density at 600 nm=1.2 corresponding to 10^7 colony-forming units per ml. As in experiment with the L-histidine heptapeptide, strips were then transferred to YSM without poly-L-histidine and the growth curve was followed by monitoring the increase in turbidity.

The test system of a further experiment is S. mutans SB. In words: Preincubation in acidic buffer, growth and viability of S. mutans SB. The format is cell-based, Streptococcus mutans. The settings on record: for % Loss of Viability / GFU (colony forming units) / O.D. 675 nm: 500 μg/ml. On the procedure:
^a S. mutans SB at 5 × 10^5 colony forming units per ml was
suspended and preincubated in MES buffer, pH 5.2, at an ionic strength of
0.025 for 1 and 2 hours at 37° C. Preincubation included various
dilution into Todd Hewitt dialysis growth media.
^b Optical densities were measured after 24 hours and 48 hours (value
in parenthesis) incubation at 37° C. for both 1 and 2 hour
^c Colony forming units were determined in duplicate after 24 hours
for both 1 and 2 hour preincubations. They were also determined after 48
hours on those 2 hour preincubation samples showing zero density (values

Setting [1] is: 1 hour preincubation, after 24 hours.
[2] abbreviates: 2 hours preincubation, after 24 hours.
Setting [3] is: 2 hours preincubation, after 48 hours (in parenthesis).

Poly-L-histidine: the “effectiveness on growth of C. albicans compared to HRP” value in the experiment with C. albicans is given as “similarly effective to the HRP”. For the same substance, the “effectiveness compared to His-7” value in the experiment on Candida Albicans 18804 (compare Table 8 to Table 7) is “even more effective than His-7”. The “time for which growth is inhibited” value in the experiment on Candida Albicans 18804 (denture strips, Table 8) amounted to 80 h. For the same substance, the “Optical Density at 600 nm” value in the experiment with Candida Albicans 18804 (strips 4 mg per ml overnight, then YSM with 2 mg per ml 24 hours, then YSM without poly-L-histidine, 0 hours of incubation) is “.02”.

In the case of HEWL: hen egg white lysozyme, the “bacteriocidal activity for S. mutans SB” value in the experiment on S. mutans SB (1 or 2 hours preincubation in MES buffer, pH 5.2) was “bacteriocidal activity”. Moreover, the figures for the “% Loss of Viability” value with S. mutans SB (setting [1]), in the experiment on S. mutans SB (setting [2]) and in the experiment with S. mutans SB (setting [3]) were 69.0%, 100% and 100%, respectively. Besides, the entries for the “GFU (colony forming units)” value with S. mutans SB (setting [1]), in the experiment with S. mutans SB (setting [2]) and with S. mutans SB (setting [3]) were 35.5 × 10^9, 0 and 0, respectively. Also, the “O.D. 675 nm” value was found to be 0.08 in the experiment with S. mutans SB (1 hour preincubation, after 24 hours incubation); 0 in the experiment with S. mutans SB (2 hours preincubation, after 24 hours incubation); 0 with S. mutans SB (2 hours preincubation, after 48 hours incubation (in parenthesis)). Further, the “bacteriocidal effect after 48 hours of incubation” value in the experiment with S. mutans SB (2 hour preincubation in the MES) is listed as “continue to be bacteriocidal”. Further, the “optical densities after 48 hours in the growth media” value in the experiment with S. mutans SB (cells previously exposed for 1 hour in the MES buffer) is reported as “attained optical densities similar to the controls”.

The values above are taken from patent US4725576A, “Fungicidal polypeptide compositions containing L-histidine and methods for use therefore” (priority 1985, dated 1988).
